The record followed here is US8722849B2, “Polypeptides” (Novo Nordisk A/S, priority 2011, dated 2014).

Converted amounts (≈) assume the structure as drawn. Like-named read-outs stand apart in the source and are kept apart here. Starred links: 1 amine or outer side, 2 acyl side, 3 side chain; linkers in the order of their positions; H or OH if unused. Positions of bridges follow the written chain, without caps; N, C: chain ends. Residues, ends and D or L forms follow the SMILES beside them. *: point of attachment. C20 diacid = O=C(O)CCCCCCCCCCCCCCCCCCC(=O)*; C18 diacid = O=C(O)CCCCCCCCCCCCCCCCC(=O)*; γGlu = O=C(O)[C@H](CCC(=O)[*:2])N[*:1]

Data set [1] in a line: Assay (III) ThT fibrillation assay for physical stability. In kind it is physicochemical. Conditions: ThT fibrillation assay. The procedure, abridged: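 Freshly prepared formulations, pH-adjusted, with 1 μM ThT; four or eight replicates incubated at 37 °C under 960 rpm orbital shaking. Fluorescence (ex 444/em 485 nm) read every 20 min; […]. Peptide concentration measured by RP-HPLC before and after the run.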

Data set [2] can be described thus: Assay (IV) determination of solubility. In kind it is physicochemical. The essentials: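 Polypeptide in water (~500 nmol/ml) mixed 1:1 with 100 mM glycylglycine (pH 3.0–5.0) or bistrispropane (pH 6.0–8.0) buffers. Held 18 hours at room temperature, then centrifuged. Polypeptide remaining in solution quantified by HPLC.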
Data set [3] concerns the target T1, human amylin receptor (amylin 3(a) receptor: human calcitonin receptor + RAMP-3) (Homo sapiens, UniProt O60896+P30988).
T1 construct: expressed in transfected cells; host or cells: BHK570
T1 sequence (P30988 25-474): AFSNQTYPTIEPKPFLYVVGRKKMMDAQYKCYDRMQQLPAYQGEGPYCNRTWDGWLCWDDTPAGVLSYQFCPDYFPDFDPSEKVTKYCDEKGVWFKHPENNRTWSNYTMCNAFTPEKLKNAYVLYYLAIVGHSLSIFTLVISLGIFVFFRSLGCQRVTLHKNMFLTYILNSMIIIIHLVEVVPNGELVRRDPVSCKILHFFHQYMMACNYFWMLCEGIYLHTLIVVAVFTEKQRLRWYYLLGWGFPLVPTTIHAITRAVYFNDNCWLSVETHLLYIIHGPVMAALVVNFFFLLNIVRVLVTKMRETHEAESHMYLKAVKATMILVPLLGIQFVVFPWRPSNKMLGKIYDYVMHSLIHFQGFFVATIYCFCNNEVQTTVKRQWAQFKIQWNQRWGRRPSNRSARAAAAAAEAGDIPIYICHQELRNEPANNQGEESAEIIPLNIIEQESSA
T1 sequence (O60896 24-148 partner): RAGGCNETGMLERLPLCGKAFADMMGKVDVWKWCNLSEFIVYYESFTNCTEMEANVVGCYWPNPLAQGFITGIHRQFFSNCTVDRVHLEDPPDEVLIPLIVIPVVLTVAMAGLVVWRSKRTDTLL
Put plainly: Assay (II)a functional CRE-luciferase assay, human amylin receptor. In kind it is cell-based. Conditions: Table 2; BHK amylin 3(a)-receptor/CRE-luc cells.

Data set [4] concerns the target T2, human calcitonin receptor (Homo sapiens, UniProt P30988).
T2 construct: expressed in transfected cells; host or cells: BHK570
T2 sequence (P30988 25-474): T1 sequence (P30988 25-474)
Put plainly: Assay (II)a functional CRE-luciferase assay, human calcitonin receptor. Conditions: Table 7; human calcitonin (CTa) receptor. In kind it is cell-based.

The mark [5] stands for this setting: bistrispropane buffer, pH 6, pH 6.0, read-out: Solubility pH 6.0.
[6] abbreviates: bistrispropane buffer, pH 6.5, pH 6.5, read-out: Solubility pH 6.5.
The mark [7] stands for this setting: bistrispropane buffer, pH 7, pH 7.0, 18 hours at room temperature, Table 3, read-out: Solubility pH 7.0.
Where [8] appears, read: bistrispropane buffer, pH 7, pH 7.0, read-out: Solubility pH 7.0.
[9] abbreviates: bistrispropane buffer, pH 7.5, pH 7.5, read-out: Solubility pH 7.5.
The mark [10] stands for this setting: bistrispropane buffer, pH 8, pH 8.0, read-out: Solubility pH 8.0.
Where [11] appears, read: glycylglycine buffer, pH 3, pH 3.0, read-out: Solubility pH 3.0.
[12] abbreviates: glycylglycine buffer, pH 4, pH 4.0, 18 hours at room temperature, Table 2, read-out: Solubility pH 4.0.
Where [13] appears, read: glycylglycine buffer, pH 4, pH 4.0, read-out: Solubility pH 4.0.
Where [14] appears, read: glycylglycine buffer, pH 5, pH 5.0, read-out: Solubility pH 5.0.

On to `CC[C@H](C)[C@H](NC(=O)[C@@H]1CCCN1C(=O)CNC(=O)[C@H](Cc1ccccc1)NC(=O)[C@H](CC(N)=O)NC(=O)[C@H](CC(N)=O)NC(=O)[C@H](CO)NC(=O)[C@H](CO)NC(=O)[C@H](Cc1c[nH]cn1)NC(=O)[C@H](Cc1c[nH]cn1)NC(=O)[C@H](CC(C)C)NC(=O)[C@H](Cc1ccccc1)NC(=O)[C@H](CCC(=O)O)NC(=O)[C@H](C)NC(=O)[C@H](CC(C)C)NC(=O)[C@H](CCCNC(=N)N)NC(=O)[C@H](CCC(N)=O)NC(=O)[C@@H](NC(=O)[C@H](C)NC(=O)[C@@H]1CSSC[C@H](NC(=O)CC[C@H](NC(=O)CC[C@H](NC(=O)CCCCCCCCCCCCCCCCC(=O)O)C(=O)O)C(=O)O)C(=O)N[C@@H](CC(N)=O)C(=O)N[C@@H]([C@@H](C)O)C(=O)N[C@@H](C)C(=O)N[C@@H]([C@@H](C)O)C(=O)N1)[C@@H](C)O)C(=O)N[C@@H](CC(C)C)C(=O)N1CCC[C@H]1C(=O)N1CCC[C@H]1C(=O)N[C@H](C(=O)N[C@@H](CC(N)=O)C(=O)N[C@H](C(=O)NCC(=O)N[C@@H](CO)C(=O)N[C@@H](CC(N)=O)C(=O)N[C@H](C(=O)N[C@@H](Cc1ccc(O)cc1)C(N)=O)[C@@H](C)O)C(C)C)[C@@H](C)O` [Example 49, N-alpha-{(S)-4-Carboxy-4-[(S)-4-Carboxy-4-(17-carboxyheptadecanoylamino)butyrylamino]butyryl}-[des1,Glu14,His17]-pramlintide] ({C18 diacid-γGlu-γGlu}-CNTATCATQRLAEFLHHSSNNFGPILPPTNVGSNTY-NH2; disulfide 1-6 (inferred)), for which the “ThT pH 4.0 lag time (h)” value in data set [1] was 0 h. In addition, the solubility at 18 h in data set [2] (setting [5]), in data set [2] (setting [6]), in data set [2] (setting [7]), in data set [2] (setting [8]), in data set [2] (setting [9]) and in data set [2] (setting [10]) was above 200 µM in each case. The solubility at 18 h was above 200 µM in data set [2] (setting [11]), above 200 µM in data set [2] (setting [12]), above 200 µM in data set [2] (setting [13]) and 27 µM (≈ 120 µg/mL) in data set [2] (setting [14]). Moreover, the EC50 came out at 0.151 nM in data set [3] and 0.527 nM in data set [4].
In the case of `CC[C@H](C)[C@H](NC(=O)[C@@H]1CCCN1C(=O)CNC(=O)[C@H](Cc1ccccc1)NC(=O)[C@H](CC(N)=O)NC(=O)[C@H](CC(N)=O)NC(=O)[C@H](CO)NC(=O)[C@H](CO)NC(=O)[C@H](Cc1c[nH]cn1)NC(=O)[C@H](Cc1c[nH]cn1)NC(=O)[C@H](CC(C)C)NC(=O)[C@H](Cc1ccccc1)NC(=O)[C@H](CCC(=O)O)NC(=O)[C@H](C)NC(=O)[C@H](CC(C)C)NC(=O)[C@H](CCCNC(=N)N)NC(=O)[C@H](CCC(N)=O)NC(=O)[C@@H](NC(=O)[C@H](C)NC(=O)[C@@H]1CSSC[C@H](NC(=O)[C@H](Cc2c[nH]cn2)NC(=O)[C@H](CCC(=O)O)NC(=O)CC[C@H](NC(=O)CCCCCCCCCCCCCCCCCCC(=O)O)C(=O)O)C(=O)N[C@@H](CC(N)=O)C(=O)N[C@@H]([C@@H](C)O)C(=O)N[C@@H](C)C(=O)N[C@@H]([C@@H](C)O)C(=O)N1)[C@@H](C)O)C(=O)N[C@@H](CC(C)C)C(=O)N1CCC[C@H]1C(=O)N1CCC[C@H]1C(=O)N[C@H](C(=O)N[C@@H](CC(N)=O)C(=O)N[C@H](C(=O)NCC(=O)N[C@@H](CO)C(=O)N[C@@H](CC(N)=O)C(=O)N[C@H](C(=O)N[C@@H](Cc1ccc(O)cc1)C(N)=O)[C@@H](C)O)C(C)C)[C@@H](C)O` [Example 40, N-alpha-[(S)-4-Carboxy-4-(19-carboxynonadecanoylamino)butyryl]-Glu-[His1,Glu14,His17]-pramlintide] ({C20 diacid-γGlu}-EHCNTATCATQRLAEFLHHSSNNFGPILPPTNVGSNTY-NH2; disulfide 3-8 (inferred); C-terminus assumed), the “ThT pH 4.0 lag time (h)” value in data set [1] is recorded as 7 h. The solubility at 18 h in data set [2] (setting [5]), in data set [2] (setting [6]), in data set [2] (setting [7]), in data set [2] (setting [8]), in data set [2] (setting [9]) and in data set [2] (setting [10]) was above 200 µM each time. For the same compound, the solubility at 18 h in data set [2] (setting [11]), in data set [2] (setting [12]), in data set [2] (setting [13]) and in data set [2] (setting [14]) was above 200 µM throughout. For the same compound, the figures for the EC50 in data set [3] and in data set [4] were 0.248 nM and 0.439 nM, respectively.
As for `CC[C@H](C)[C@H](NC(=O)[C@@H]1CCCN1C(=O)CNC(=O)[C@H](Cc1ccccc1)NC(=O)[C@H](CC(N)=O)NC(=O)[C@H](CC(N)=O)NC(=O)[C@H](CO)NC(=O)[C@H](CO)NC(=O)[C@H](Cc1c[nH]cn1)NC(=O)[C@H](Cc1c[nH]cn1)NC(=O)[C@H](CC(C)C)NC(=O)[C@H](Cc1ccccc1)NC(=O)[C@H](CCC(=O)O)NC(=O)[C@H](C)NC(=O)[C@H](CC(C)C)NC(=O)[C@H](CCCNC(=N)N)NC(=O)[C@H](CCC(N)=O)NC(=O)[C@@H](NC(=O)[C@H](C)NC(=O)[C@@H]1CSSC[C@H](NC(=O)[C@H](CO)NC(=O)CC[C@H](NC(=O)CCCCCCCCCCCCCCCCCCC(=O)O)C(=O)O)C(=O)N[C@@H](CC(N)=O)C(=O)N[C@@H]([C@@H](C)O)C(=O)N[C@@H](C)C(=O)N[C@@H]([C@@H](C)O)C(=O)N1)[C@@H](C)O)C(=O)N[C@@H](CC(C)C)C(=O)N1CCC[C@H]1C(=O)N1CCC[C@H]1C(=O)N[C@H](C(=O)N[C@@H](CC(N)=O)C(=O)N[C@H](C(=O)NCC(=O)N[C@@H](CO)C(=O)N[C@@H](Cc1c[nH]cn1)C(=O)N[C@H](C(=O)N[C@@H](Cc1ccc(O)cc1)C(N)=O)[C@@H](C)O)C(C)C)[C@@H](C)O` [Example 107, N-alpha-[(S)-4-Carboxy-4-(19-carboxynonadecanoylamino)butyryl]-[Ser1,Glu14,His17,His35]-pramlintide] ({C20 diacid-γGlu}-SCNTATCATQRLAEFLHHSSNNFGPILPPTNVGSHTY-NH2; disulfide 2-7), the “ThT pH 4.0 lag time (h)” value in data set [1] stood at 19 h. The solubility at 18 h is 49 µM (≈ 217 µg/mL) in data set [2] (setting [5]); 4 µM (≈ 17.8 µg/mL) in data set [2] (setting [6]); 27 µM (≈ 120 µg/mL) in data set [2] (setting [8]); 174 µM (≈ 772 µg/mL) in data set [2] (setting [9]); above 200 µM in data set [2] (setting [10]); above 200 µM in data set [2] (setting [11]). For the same compound, the solubility at 18 h in data set [2] (setting [12]), in data set [2] (setting [13]) and in data set [2] (setting [14]) was above 200 µM each time. In addition, the values for the half-maximal effective concentration (EC50) in data set [3] and in data set [4] were 0.225 nM and 0.171 nM, respectively.
`CC[C@H](C)[C@H](NC(=O)[C@@H]1CCCN1C(=O)CNC(=O)[C@H](Cc1ccccc1)NC(=O)[C@H](CC(N)=O)NC(=O)[C@H](CCC(N)=O)NC(=O)[C@H](CO)NC(=O)[C@H](CO)NC(=O)[C@H](Cc1c[nH]cn1)NC(=O)[C@@H](NC(=O)[C@H](CC(C)C)NC(=O)[C@H](Cc1ccccc1)NC(=O)[C@H](CCC(=O)O)NC(=O)[C@H](C)NC(=O)[C@H](CC(C)C)NC(=O)[C@H](CCCNC(=N)N)NC(=O)[C@H](CCC(N)=O)NC(=O)[C@@H](NC(=O)[C@H](C)NC(=O)[C@@H]1CSSC[C@H](NC(=O)[C@H](CCCCN)NC(=O)CC[C@H](NC(=O)CCCCCCCCCCCCCCCCCCC(=O)O)C(=O)O)C(=O)N[C@@H](CC(N)=O)C(=O)N[C@@H]([C@@H](C)O)C(=O)N[C@@H](C)C(=O)N[C@@H]([C@@H](C)O)C(=O)N1)[C@@H](C)O)C(C)C)C(=O)N[C@@H](CC(C)C)C(=O)N1CCC[C@H]1C(=O)N1CCC[C@H]1C(=O)N[C@H](C(=O)N[C@@H](CC(N)=O)C(=O)N[C@H](C(=O)NCC(=O)N[C@@H](CO)C(=O)N[C@@H](CCC(N)=O)C(=O)N[C@H](C(=O)N1CCC[C@H]1C(N)=O)[C@@H](C)O)C(C)C)[C@@H](C)O` [Example 139, N-alpha-[(S)-4-Carboxy-4-(19-carboxynonadecanoylamino)butyryl]-[Glu14,Gln21,Gln35,Pro37]-pramlintide] ({C20 diacid-γGlu}-KCNTATCATQRLAEFLVHSSQNFGPILPPTNVGSQTP-NH2; disulfide 2-7 (inferred)): in data set [1], the “ThT pH 4.0 lag time (h)” value stood at 23.6 h. Further, the solubility at 18 h in data set [2] (setting [5]), in data set [2] (setting [6]), in data set [2] (setting [7]), in data set [2] (setting [8]), in data set [2] (setting [9]) and in data set [2] (setting [10]) was above 200 µM each time. The solubility at 18 h in data set [2] (setting [11]), in data set [2] (setting [12]), in data set [2] (setting [13]) and in data set [2] (setting [14]) was above 200 µM each time. In addition, the 50% effective concentration (EC50) was 0.107 nM in data set [3] and 0.0585 nM in data set [4].
